Data published in US12344596B2, “Solid forms of (S)-1-((2′,6-bis(difluoromethyl)-[2,4′-bipyridin]-5-yl)oxy)-2,4-dimethylpentan-2-amine and salts thereof” (Lexicon Pharmaceuticals, Inc., priority 2022, dated 2025).

Legend:
[1] = water solubility at 25° C.; type: physicochemical; settings: aqueous
[2] = storage stability at 40° C. and 75% relative humidity; type: physicochemical; settings: stored at 40° C. and 75% relative humidity for up to four weeks
Protocol: Instead, the melting of Form I is observed to recrystallize to another, metastable form having a melting point of about 172.5° C.

| Compound | solubility [1] | stability of form, morphology and purity on storage [2] |
| --- | --- | --- |
| CC(C)C[C@](C)(N)COc1ccc(-c2ccnc(C(F)F)c2)nc1C(F)F.Cl [Compound S, (S)-1-((2′,6-bis(difluoromethyl)-[2,4′-bipyridin]-5-yl)oxy)-2,4-dimethylpentan-2-amine hydrochloride] | 2900 µg/mL |  |
| CC(C)C[C@](C)(N)COc1ccc(-c2ccnc(C(F)F)c2)nc1C(F)F [Compound K, ((S)-1-((2′,6-bis(difluoromethyl)-[2,4′-bipyridin]-5-yl)oxy)-2,4-dimethylpentan-2-aminiumdihydrogen phosphate] |  | neither the form itself, its morphology, nor its purity changed |
